Measurements reported in patent US5030628A, “N-aryl-azetidinones, their preparation process and their use as elastase inhibitors” (Scientifique, priority 1988, dated 1991).

Biological target: porcine pancreatic elastase (PPE) (Sus scrofa, UniProt P00772)
Test: Deactivation of porcine pancreatic elastase (PPE), Kitz and Wilson / Hart and O'Brian kinetics
Format: biochemical
Conditions: not given
Experimental: (§1) All the kinetic measurements are carried out at 37° C. and at a pH of 8 with a 0.1M tris buffer (PPE) or a 0.1M tris buffer, Brij 0.01%, NaN3 0.02% (HLE) (pH 7.5 for compound 5d). The method of Hart and O'Brian was published in 1973 in Biochemistry, Vol. 12, pp. 2940-2945 and that of Kitz and Wilson in 1962 in J. Biol. Chem., Vol. 237, pp. 3245-3249. In this way the first order constant ki is determined for the formation of the deactivated enzyme and the dissociation constant Ki of the enzyme-inhibitor complex. The ki: Ki ratio is the apparent second order constant characterizing the deactivation.

porcine pancreatic elastase (PPE), sequence (P00772 27-266): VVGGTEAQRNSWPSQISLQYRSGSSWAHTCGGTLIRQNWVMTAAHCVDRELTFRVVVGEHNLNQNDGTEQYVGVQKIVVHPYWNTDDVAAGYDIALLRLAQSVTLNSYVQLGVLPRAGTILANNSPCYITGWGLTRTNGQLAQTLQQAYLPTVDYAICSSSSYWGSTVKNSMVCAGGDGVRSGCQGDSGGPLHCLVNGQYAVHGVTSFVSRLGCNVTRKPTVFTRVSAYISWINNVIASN

Row | SMILES | deactivation of PPE (in words)
1 | O=C1N(c2ccccc2CCl)CC1(F)Br (stereo not shown) [5'a, N-(2-chloromethylphenyl)-3-fluoro-3bromo-2-azetidinone] | deactivate
2 | O=C1N(c2ccccc2CCl)CC1(F)F [Compound 5a, N-(2-chloromethylphenyl)-3,3-difluoro-2-azetidinone] | deactivate
3 | CS(=O)(=O)OCc1ccccc1N1CC(F)(F)C1=O [Compound 5c, N-(2-methanesulphonyloxymethylphenyl)-3,3-difluoro-2-azetidinone] | deactivate
4 | O=C1N(c2ccc(CCl)cc2)CC1(F)F [Compound 10a, N-(4-chloromethylphenyl)-3,3-difluoro-2-azetidinone] | deactivate

Same assay, conditions: 37° C., pH 8, 0.1M tris buffer, Kitz and Wilson (5a, 5c, 5e, 10a), Hart and O'Brian (5a, 5'a), read-out: Ki (dissociation constant of the enzyme-inhibitor complex), PPE

Row | SMILES | Ki
5 | O=C1N(c2ccccc2CCl)CC1(F)Br (stereo not shown) [5'a, N-(2-chloromethylphenyl)-3-fluoro-3bromo-2-azetidinone] | 8.5 µM
6 | O=C1N(c2ccccc2CCl)CC1(F)F [Compound 5a, N-(2-chloromethylphenyl)-3,3-difluoro-2-azetidinone] | 30 µM
7 | CS(=O)(=O)OCc1ccccc1N1CC(F)(F)C1=O [Compound 5c, N-(2-methanesulphonyloxymethylphenyl)-3,3-difluoro-2-azetidinone] | 48 µM
8 | O=C1N(c2ccccc2CCl)CC1(Cl)Cl [Compound 5e, N-(2-chloromethylphenyl)-3,3-di-chloro-2-azetidinone] | 590 µM
9 | O=C1N(c2ccc(CCl)cc2)CC1(F)F [Compound 10a, N-(4-chloromethylphenyl)-3,3-difluoro-2-azetidinone] | 660 µM

Same assay, conditions: 37° C., pH 8, 0.1M tris buffer, Kitz and Wilson (5a, 5c, 5e, 10a), Hart and O'Brian (5a, 5'a), read-out: ki (first order constant for the formation of the deactivated enzyme), PPE

Row | SMILES | kinact
10 | O=C1N(c2ccccc2CCl)CC1(F)Br (stereo not shown) [5'a, N-(2-chloromethylphenyl)-3-fluoro-3bromo-2-azetidinone] | 0.048 s⁻¹
11 | O=C1N(c2ccccc2CCl)CC1(F)F [Compound 5a, N-(2-chloromethylphenyl)-3,3-difluoro-2-azetidinone] | 0.031 s⁻¹
12 | CS(=O)(=O)OCc1ccccc1N1CC(F)(F)C1=O [Compound 5c, N-(2-methanesulphonyloxymethylphenyl)-3,3-difluoro-2-azetidinone] | 0.017 s⁻¹
13 | O=C1N(c2ccccc2CCl)CC1(Cl)Cl [Compound 5e, N-(2-chloromethylphenyl)-3,3-di-chloro-2-azetidinone] | 0.028 s⁻¹
14 | O=C1N(c2ccc(CCl)cc2)CC1(F)F [Compound 10a, N-(4-chloromethylphenyl)-3,3-difluoro-2-azetidinone] | 0.075 s⁻¹

Same assay, conditions: 37° C., pH 8, 0.1M tris buffer, read-out: ki/Ki (apparent second order constant characterizing the deactivation), PPE

Row | SMILES | kinact/KI
15 | O=C1N(c2ccccc2CCl)CC1(F)Br (stereo not shown) [5'a, N-(2-chloromethylphenyl)-3-fluoro-3bromo-2-azetidinone] | 5650 M⁻¹ s⁻¹
16 | O=C1N(c2ccccc2CCl)CC1(F)F [Compound 5a, N-(2-chloromethylphenyl)-3,3-difluoro-2-azetidinone] | 1030 M⁻¹ s⁻¹
17 | CS(=O)(=O)OCc1ccccc1N1CC(F)(F)C1=O [Compound 5c, N-(2-methanesulphonyloxymethylphenyl)-3,3-difluoro-2-azetidinone] | 354 M⁻¹ s⁻¹
18 | O=C1N(c2ccccc2CCl)CC1(Cl)Cl [Compound 5e, N-(2-chloromethylphenyl)-3,3-di-chloro-2-azetidinone] | 47 M⁻¹ s⁻¹
19 | O=C1N(c2ccc(CCl)cc2)CC1(F)F [Compound 10a, N-(4-chloromethylphenyl)-3,3-difluoro-2-azetidinone] | 113 M⁻¹ s⁻¹

Biological target: T1, human leucocytic elastase (HLE) (Homo sapiens, UniProt P08246)
T1 sequence (P08246 30-267): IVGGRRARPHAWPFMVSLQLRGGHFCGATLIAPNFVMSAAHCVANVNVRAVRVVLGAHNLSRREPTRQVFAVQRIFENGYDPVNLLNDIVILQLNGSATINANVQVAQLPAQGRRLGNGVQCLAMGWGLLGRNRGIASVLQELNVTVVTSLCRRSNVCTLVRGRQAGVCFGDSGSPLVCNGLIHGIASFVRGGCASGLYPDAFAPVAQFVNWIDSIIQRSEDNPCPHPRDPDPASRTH
Test: Deactivation of human leucocytic elastase (HLE), Kitz and Wilson kinetics
Format: biochemical
Conditions: not given
Experimental: as §1

Row | SMILES | deactivation of HLE (in words)
20 | O=C1N(c2ccccc2CCl)CC1(F)Br (stereo not shown) [5'a, N-(2-chloromethylphenyl)-3-fluoro-3bromo-2-azetidinone] | deactivate
21 | O=C1N(c2ccccc2CCl)CC1(F)F [Compound 5a, N-(2-chloromethylphenyl)-3,3-difluoro-2-azetidinone] | deactivate
22 | CS(=O)(=O)OCc1ccccc1N1CC(F)(F)C1=O [Compound 5c, N-(2-methanesulphonyloxymethylphenyl)-3,3-difluoro-2-azetidinone] | deactivate
23 | O=C1N(c2ccc(CCl)cc2)CC1(F)F [Compound 10a, N-(4-chloromethylphenyl)-3,3-difluoro-2-azetidinone] | deactivate

Same assay, conditions: 37° C., pH 7.5 for compound 5d, 0.1M tris buffer, Brij 0.01%, NaN3 0.02%, Kitz and Wilson, read-out: ki/Ki (apparent second order constant characterizing the deactivation), HLE, pH 7.5

Row | SMILES | kinact/KI
24 | O=C1N(c2ccccc2CBr)CC1(F)F [Compound 5d, N-(2-bromomethylphenyl)-3,3-difluoro-2-azetidinone] | 40 M⁻¹ s⁻¹

Same assay, conditions: 37° C., pH 8, 0.1M tris buffer, Brij 0.01%, NaN3 0.02%, Kitz and Wilson, read-out: Ki (dissociation constant of the enzyme-inhibitor complex), HLE

Row | SMILES | Ki
25 | O=C1N(c2ccccc2CCl)CC1(F)Br (stereo not shown) [5'a, N-(2-chloromethylphenyl)-3-fluoro-3bromo-2-azetidinone] | 1170 µM
26 | O=C1N(c2ccccc2CCl)CC1(F)F [Compound 5a, N-(2-chloromethylphenyl)-3,3-difluoro-2-azetidinone] | 16.6 µM
27 | CS(=O)(=O)OCc1ccccc1N1CC(F)(F)C1=O [Compound 5c, N-(2-methanesulphonyloxymethylphenyl)-3,3-difluoro-2-azetidinone] | 500 µM
28 | O=C1N(c2ccccc2CCl)CC1(Cl)Cl [Compound 5e, N-(2-chloromethylphenyl)-3,3-di-chloro-2-azetidinone] | 500 µM

Same assay, conditions: 37° C., pH 8, 0.1M tris buffer, Brij 0.01%, NaN3 0.02%, Kitz and Wilson, read-out: ki (first order constant for the formation of the deactivated enzyme), HLE

Row | SMILES | kinact
29 | O=C1N(c2ccccc2CCl)CC1(F)Br (stereo not shown) [5'a, N-(2-chloromethylphenyl)-3-fluoro-3bromo-2-azetidinone] | 0.37 s⁻¹
30 | O=C1N(c2ccccc2CCl)CC1(F)F [Compound 5a, N-(2-chloromethylphenyl)-3,3-difluoro-2-azetidinone] | 0.005 s⁻¹
31 | CS(=O)(=O)OCc1ccccc1N1CC(F)(F)C1=O [Compound 5c, N-(2-methanesulphonyloxymethylphenyl)-3,3-difluoro-2-azetidinone] | 0.05 s⁻¹
32 | O=C1N(c2ccccc2CCl)CC1(Cl)Cl [Compound 5e, N-(2-chloromethylphenyl)-3,3-di-chloro-2-azetidinone] | 0.03 s⁻¹

Same assay, conditions: 37° C., pH 8, 0.1M tris buffer, Brij 0.01%, NaN3 0.02%, Kitz and Wilson, read-out: ki/Ki (apparent second order constant characterizing the deactivation), HLE

Row | SMILES | kinact/KI
33 | O=C1N(c2ccccc2CCl)CC1(F)Br (stereo not shown) [5'a, N-(2-chloromethylphenyl)-3-fluoro-3bromo-2-azetidinone] | 316 M⁻¹ s⁻¹
34 | O=C1N(c2ccccc2CCl)CC1(F)F [Compound 5a, N-(2-chloromethylphenyl)-3,3-difluoro-2-azetidinone] | 301 M⁻¹ s⁻¹
35 | CS(=O)(=O)OCc1ccccc1N1CC(F)(F)C1=O [Compound 5c, N-(2-methanesulphonyloxymethylphenyl)-3,3-difluoro-2-azetidinone] | 100 M⁻¹ s⁻¹
36 | O=C1N(c2ccccc2CCl)CC1(Cl)Cl [Compound 5e, N-(2-chloromethylphenyl)-3,3-di-chloro-2-azetidinone] | 60 M⁻¹ s⁻¹
37 | O=C1N(c2ccc(CCl)cc2)CC1(F)F [Compound 10a, N-(4-chloromethylphenyl)-3,3-difluoro-2-azetidinone] | ~1.2 M⁻¹ s⁻¹

Test system: chymotrypsin
Test: Test as chymotrypsin inhibitors under identical conditions
Format: biochemical
Conditions: not given
Text: (§2) The properties of the N-aryl-azetidinones obtained in examples 4, 5, 6, 7, 11, 17, 22 and 23 are checked and in particular their deactivation capacity for porcine pancreatic elastase (PPE) and human leucocytic elastase (HLE) using the methods of Kitz and Wilson for HLE in the case of compounds 5a, 5c, 5d, 5e, 5a' and 10a, the method of Kitz and Wilson for PPE in the case of compounds 5a, 5c, 5e and 10a and the method of Hart and O'Brian for PPE in the case of compounds 5a and 5'a. All the kinetic measurements are carried out at 37° C. and at a pH of 8 with a 0.1M tris buffer (PPE) or a 0.1M tris buffer, Brij 0.01%, NaN3 0.02% (HLE) (pH 7.5 for compound 5d).
(§3) On testing compounds 5, 5c, 5'a'under identical conditions as chymotrypsin or trypsin inhibitors, it can be seen that they have no action on these enzymes.

Row | SMILES | action on chymotrypsin
38 | O=C1N(c2ccccc2CCl)CC1(F)Br (stereo not shown) [5'a, N-(2-chloromethylphenyl)-3-fluoro-3bromo-2-azetidinone] | no action
39 | O=C1N(c2ccccc2CCl)CC1(F)F [Compound 5a, N-(2-chloromethylphenyl)-3,3-difluoro-2-azetidinone] | no action
40 | CS(=O)(=O)OCc1ccccc1N1CC(F)(F)C1=O [Compound 5c, N-(2-methanesulphonyloxymethylphenyl)-3,3-difluoro-2-azetidinone] | no action

Test system: trypsin
Test: Test as trypsin inhibitors under identical conditions
Format: biochemical
Conditions: not given
Text: as §2, §3

Row | SMILES | action on trypsin
41 | O=C1N(c2ccccc2CCl)CC1(F)Br (stereo not shown) [5'a, N-(2-chloromethylphenyl)-3-fluoro-3bromo-2-azetidinone] | no action
42 | O=C1N(c2ccccc2CCl)CC1(F)F [Compound 5a, N-(2-chloromethylphenyl)-3,3-difluoro-2-azetidinone] | no action
43 | CS(=O)(=O)OCc1ccccc1N1CC(F)(F)C1=O [Compound 5c, N-(2-methanesulphonyloxymethylphenyl)-3,3-difluoro-2-azetidinone] | no action

Test system: elastase
Test: Properties with respect to elastase (substrate or inhibitor)
Format: biochemical
Conditions: not given
Text: Thus, the nature of the R^3 substituent has a significant influence on the properties of the product obtained.

Row | SMILES | elastase inhibition | elastase substrate
44 | O=C1N(c2ccccc2CF)CC1(F)F [Compound 5b, N-(2-fluoromethylphenyl)-3,3-difluoro-2-azetidinone] | not inhibitors | elastase substrates
45 | O=C1N(c2ccc(CF)cc2)CC1(F)F [Compound 10b, N-(4-fluoromethylphenyl)-3,3-difluoro-2-azetidinone] | not inhibitors | elastase substrates

Test system: elastase
Test: Effect on the degradation of elastin by elastase
Format: biochemical
Conditions: elastase previously incubated for 30 min. in the presence of an elastin excess (2mg)
Experimental: The effect of compound 5on the degradation of elastin, the natural substrate of elastase in the human organism was tested.

Row | SMILES | deactivation of elastase previously incubated with elastin
46 | O=C1N(c2ccccc2CCl)CC1(F)Br (stereo not shown) [5'a, N-(2-chloromethylphenyl)-3-fluoro-3bromo-2-azetidinone] | remain capable of deactivating elastase
47 | O=C1N(c2ccccc2CCl)CC1(F)F [Compound 5a, N-(2-chloromethylphenyl)-3,3-difluoro-2-azetidinone] | remain capable of deactivating elastase
48 | CS(=O)(=O)OCc1ccccc1N1CC(F)(F)C1=O [Compound 5c, N-(2-methanesulphonyloxymethylphenyl)-3,3-difluoro-2-azetidinone] | remain capable of deactivating elastase

Same assay, conditions: elastase previously treated by the compound

Row | SMILES | capacity of treated elastase to degrade elastin
49 | O=C1N(c2ccccc2CCl)CC1(F)F [Compound 5a, N-(2-chloromethylphenyl)-3,3-difluoro-2-azetidinone] | lost its capacity to degrade elastin

Test system: not listed separately
Test: Acute toxicity in male and female mice
Conditions: mouse, in vivo
Experimental: The acute toxicity of compound 5a researched on male and female mice exceeds 200 mg/kg.

Row | SMILES | LD50
50 | O=C1N(c2ccccc2CCl)CC1(F)F [Compound 5a, N-(2-chloromethylphenyl)-3,3-difluoro-2-azetidinone] | > 200 mg/kg
